Assay results: JP2010202587A, “プロトンポンプ阻害剤を含有する組成物” (Pola Chemical Industries Inc, priority 2009, dated 2010)

How the values were obtained:
[1] = test system: human normal melanocytes [ヒト正常メラノサイト]; test: Detection of acidification in melanosomes (proton pump inhibition; DAMP fluorescence, confocal laser microscope); assay type: cell-based; details: Figure 2; for Colour of overlaid photograph (DAMP + tyrosinase): yellow = melanosome acidified
[2] = test system: human normal melanocytes [ヒト正常メラノサイト]; test: Melanin production inhibition (2-[2-14C]thiouracil uptake, 4 days); assay type: cell-based; details: in words, from Table 1
[3] = molecular target: T1, tyrosinase [チロシナ−ゼ] (Homo sapiens, UniProt P14679); details: known from patent literature; cited from earlier work
T1 sequence (P14679 19-529): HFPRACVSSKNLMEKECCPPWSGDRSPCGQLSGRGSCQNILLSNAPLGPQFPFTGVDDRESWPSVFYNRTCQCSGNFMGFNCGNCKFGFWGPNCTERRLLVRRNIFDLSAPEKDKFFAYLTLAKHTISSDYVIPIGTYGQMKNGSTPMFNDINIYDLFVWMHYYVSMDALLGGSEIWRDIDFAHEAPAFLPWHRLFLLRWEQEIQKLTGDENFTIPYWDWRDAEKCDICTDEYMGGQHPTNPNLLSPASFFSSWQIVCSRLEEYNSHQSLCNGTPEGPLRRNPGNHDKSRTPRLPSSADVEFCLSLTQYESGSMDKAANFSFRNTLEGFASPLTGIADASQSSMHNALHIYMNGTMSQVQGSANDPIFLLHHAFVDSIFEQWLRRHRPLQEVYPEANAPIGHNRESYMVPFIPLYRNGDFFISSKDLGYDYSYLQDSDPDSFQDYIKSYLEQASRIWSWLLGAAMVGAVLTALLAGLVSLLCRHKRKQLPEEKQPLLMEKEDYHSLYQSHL

[4] = molecular target: T2, tyrosinase [チロシナ−ゼ] (Homo sapiens, UniProt P14679); test: Direct tyrosinase inhibition (human melanocyte extract, L-DOPA substrate); assay type: biochemical; details: human normal melanocyte extract, 37℃, 15 min, in words, from Table 2
T2 construct: 溶解液を15000rpm、5分間遠心し、上清を回収し細胞抽出液とした; host or cells: normal human melanocytes (detergent lysate supernatant)

Red staining showing the presence of tyrosinase ([1]; versus untreated control)	Colour of overlaid photograph (DAMP + tyrosinase) [1]	Compound	Melanin production inhibition compared with the positive control (hydroquinone) [2]	further results
同程度	–	CC(C)=CCc1cc([C@@H]2CC(=O)c3c(O)c(CC=C(C)C)c(O)c(CC=C(C)C)c3O2)cc(O)c1O [化合物3, amorisin]	陽性対照と同等乃至はそれ以上のメラニン産生抑制作用	–
–	–	CCCCc1ccc(O)cc1O [4−n−ブチルレゾルシノ−ル]	–	Tyrosinase inhibitory activity [3]: 強力なチロシナ−ゼ阻害活性
–	–	Oc1ccc(O)cc1 [ハイドロキノン, reference compound]	–	Melanin production inhibition [2]: 優れたメラニン産生抑制作用
コントロ−ルと同程度	黄色を呈している	Euchrenone a6 [化合物1]	優れたメラニン産生抑制作用	Green staining showing the degree of acidification (DAMP) ([1]; versus untreated control): 濃くなっており
–	–	NC(=S)Nc1ccccc1 [フェニルチオウレア]	–	Direct tyrosinase inhibition [4]: 顕著なチロシナ−ゼ直接阻害作用を示した
–	黄色より幾分オレンジ色がかっている	Euchrenone a3 [化合物2]	優れたメラニン産生抑制作用	–
